Test results: ChEMBL document CHEMBL1147876, “Synthesis of novel 3-amino-2-(4-chloro-2-mercaptobenzenesulfonyl)-guanidine derivatives as potential antitumor agents” (Eur J Med Chem, 2007)
The source made the active and inactive calls.

How the values were obtained:
Type in all cases: functional, cell-based
MCF7 = assay: Anticancer activity against human MCF7 cells at 100 uM
SF-268 = assay: Anticancer activity against human SF268 cells at 100 uM
NCI-H460 = assay: Anticancer activity against human NCI-H460 cells at 100 uM

Measured: Activity

C#CCN/C(=N/S(=O)(=O)c1cc(C)c(Cl)cc1SCC#N)NN
inactive: all assays above

C#CCN/C(=N/S(=O)(=O)c1cc(C)c(Cl)cc1SCC(=O)c1ccccc1)NN
inactive: all assays above

C#CCN/C(=N/S(=O)(=O)c1cc(C)c(Cl)cc1S)NN
inactive: all assays above

C=CCN/C(=N/S(=O)(=O)c1cc(C(=O)Nc2ccc(Cl)cc2)c(Cl)cc1SC)NN
inactive: all assays above

C=CCN/C(=N/S(=O)(=O)c1cc(C)c(Cl)cc1SC)N/N=C/c1ccc([N+](=O)[O-])o1
inactive: all assays above

C#CCN/C(=N/S(=O)(=O)c1cc(C)c(Cl)cc1SCC(N)=O)NN
inactive: all assays above

C#CCN/C(=N/S(=O)(=O)c1cc(C(=O)Nc2ccccc2)c(Cl)cc1S)NN
inactive: all assays above

C=CCN/C(=N/S(=O)(=O)c1cc(C(=O)Nc2ccccc2)c(Cl)cc1SCC(N)=O)NN
inactive: all assays above
